Assays:
VRE = assay: Susceptibility of the subject's blood culture isolate (treatment history); format: cell-based; details: 2012 December
Text: 11, 2013; the plan was for at least 8 weeks of antibiotic therapy.

S. aureus = assay: Broth microdilution MIC, European bacteraemia isolates 2010-2012; format: cell-based; details: S. aureus Methicillin-resistant (1,708)
Protocol: (§1) A total of 2,904 clinical strains responsible for documented bacteremia among unique hospitalized patients in 38 hospitals in 11 European Union countries. Israel, Russia, Turkey and Ukraine were included in this study (2010-2012). Isolates were submitted to a central monitoring laboratory (JMI Laboratories, North Liberty. Iowa. USA), following previously established protocols. Bacterial species identification was performed by using an automated system (Vitek®2; bioMèrieux, Hazelwood, Mo., USA) or conventional biochemical algorithms, as required.
(§2) Isolates were tested for susceptibility by broth microdilution methods following the Clinical and Laboratory Standards Institute (CLSI; M07-A9, 2012) document. Susceptibility testing was performed in cation-adjusted Mueller-Hinton broth (CA-MHB) using dry-form panels manufactured by Thermo Fisher Scientific, formerly TREK Diagnostics Systems/Sensititre (Cleveland. Ohio, USA). These panels provide results equivalent to the CLSI-approved broth microdilution method supplemented with 0.002% polysorbate-80.
(§3) Quality assurance was performed by concurrent testing of CLSI-recommended (M100-S23, 2013) strains: E. faecalis ATCC 29212 and S. aureus ATCC 29213. Interpretation of comparator MIC results was in accordance with published CLSI (M100-S23) and European Committee on Antimicrobial Susceptibility Testing (EUCAST, 2013) criteria.

[1] = tested on: Coagulase-negative staphylococci; assay: as above; format: cell-based, coagulase-negative staphylococci (CoNS); details: Coagulase-negative staphylococci (646)
Protocol: as §1, §2, §3

E. faecalis [2] = assay: as above; format: cell-based, Enterococcus faecalis
Protocol: as §1, §2, §3

E. faecium [3] = assay: as above; format: cell-based, Enterococcus faecium; details: for % Resistant, CLSI / % Susceptible, CLSI: CLSI M100-S23 breakpoints; for % Resistant, EUCAST / % Susceptible, EUCAST: EUCAST 2013 breakpoints; for MIC50 / MIC90 / MIC Range: Table 2
Protocol: as §1, §2, §3

E. faecalis [4] = assay: Broth microdilution MIC, US isolates 2011-2012, blood vs non-blood; format: cell-based
Protocol: (§4) 527 E. faecalis, 176 E. faecium, and 790 BHS (335 S. pyogenes and 455 S. agalactiae) clinical, single patient, non-consecutive isolates were collected in 2011-2012 from 46 sites geographically distributed across the United States. The MICs were determined by broth microdilution testing performed in accordance with CLSI M7 and M100 guidelines. From the resulting database, this analysis focused on the activities of ORI, vancomycin (VAN), daptomycin (DAP), and linezolid (LZD) according to specimen source.

E. faecium [5] = assay: as above; format: cell-based
Protocol: as §4

S. agalactiae = assay: as above; format: cell-based
Protocol: as §4

S. pyogenes = assay: as above; format: cell-based
Protocol: as §4

MDR SA = assay: Microdilution MIC against MDR SA by specimen source; format: cell-based, S. aureus
Protocol: 456 clinical, single-patient, non-consecutive, MDR SA isolates from the known specimen sources collected in 2011-2012 were analyzed. MDR was defined as resistant to ≧3 of the following: erythromycin, clindamycin, gentamicin, levofloxacin, and trimethoprim/sulfamethoxazole. 382 were MRSA and 74 were MSSA. MICs were determined by microdilution testing in accordance with CLSI M7 and M100 guidelines. Although other comparator drugs were tested, this analysis focuses on the activities of ORI, VAN, DAP, and LZD.

[6] = E. faecalis (445), CLSI M100-S23 breakpoints
[7] = E. faecalis (445), EUCAST 2013 breakpoints
[8] = E. faecium Vancomycin-resistant (VanA-phenotype) (153)
[9] = E. faecium Vancomycin-susceptible (257)
[10] = Enterococcus faecium, E. faecium Vancomycin-resistant (VanA-phenotype) (153)
[11] = Enterococcus faecium, E. faecium Vancomycin-susceptible (257)

CCCCCCCCCCNCCN[C@@]1(C)C[C@H](O[C@H]2[C@H](Oc3c4cc5cc3Oc3ccc(cc3Cl)[C@@H](O)[C@@H](NC(=O)[C@@H](CC(C)C)NC)C(=O)N[C@@H](CC(N)=O)C(=O)N[C@H]5C(=O)N[C@H]3C(=O)N[C@H](C(=O)N[C@H](C(=O)O)c5cc(O)c(CNCP(=O)(O)O)c(O)c5-c5cc3ccc5O)[C@H](O)c3ccc(c(Cl)c3)O4)O[C@H](CO)[C@@H](O)[C@@H]2O)O[C@@H](C)[C@H]1O [televancin]
resistant: susceptibility (VRE)

CN[C@H](CC(C)C)C(=O)N[C@H]1C(=O)N[C@@H](CC(N)=O)C(=O)N[C@H]2C(=O)N[C@H]3C(=O)N[C@H](C(=O)N[C@H](C(=O)O)c4cc(O)cc(O)c4-c4cc3ccc4O)[C@H](O)c3ccc(c(Cl)c3)Oc3cc2cc(c3O[C@@H]2O[C@H](CO)[C@@H](O)[C@H](O)[C@H]2O[C@H]2C[C@](C)(N)[C@H](O)[C@H](C)O2)Oc2ccc(cc2Cl)[C@H]1O [Vancomycin, vancomycin]
> 4 µg/mL: MIC (E. faecium [3]; Enterococcus faecium, read-out: MIC values)
0.5 µg/mL: MIC90 (S. agalactiae; Blood, N 100) | MIC90 (S. agalactiae; Non-Blood, N 355) | MIC50 (MDR SA; Blood, n = 108) | Mode (MIC) (MDR SA; Blood, n = 108) | MIC50 (MDR SA; Respiratory, N = 157) | Mode (MIC) (MDR SA; Respiratory, N = 157) | MIC50 (MDR SA; Skin/Wound, N = 191) | Mode (MIC) (MDR SA; Skin/Wound, N = 191)
≦0.25-1: Range (MIC) (MDR SA; Respiratory, N = 157) | Range (MIC) (MDR SA; Skin/Wound, N = 191)
> 16 µg/mL: MIC50 (E. faecium [3]; [10]) | MIC90 (E. faecium [3]; [10])
2 µg/mL: MIC50 ([1]; Table 2) | MIC90 ([1]; Table 2) | MIC90 (E. faecalis [2]; Enterococcus faecalis) | MIC90 (E. faecalis [4]; Blood, N 116) | MIC90 (E. faecalis [4]; Non-Blood, N 411)
0.25 µg/mL: MIC90 (S. pyogenes; Blood, N 53) | MIC90 (S. pyogenes; Non-Blood, N 282)
1 µg/mL: MIC50 (S. aureus; Staphylococcus aureus, Table 2) | MIC90 (S. aureus; Staphylococcus aureus, Table 2) | MIC50 (E. faecalis [2]; Enterococcus faecalis) | MIC50 (E. faecium [3]; [11]) | MIC90 (E. faecium [3]; [11]) | MIC90 (MDR SA; Blood, n = 108) | MIC90 (MDR SA; Respiratory, N = 157) | MIC90 (MDR SA; Skin/Wound, N = 191)
0.25 to 2 µg/mL: MIC Range (S. aureus; Table 2)
> 32 µg/mL: MIC90 (E. faecium [5]; Blood, N 84) | MIC90 (E. faecium [5]; Non-Blood, N 92)
>16 µg/mL: MIC Range (E. faecium [3]; [8])
0.25 to 4 µg/mL: MIC Range ([1]; Table 2)
0.9%: % Resistant, CLSI (E. faecalis [2]; [6]) | % Resistant, EUCAST (E. faecalis [2]; [7])
100.0%: % Susceptible, CLSI (S. aureus; CLSI M100-S23 breakpoints) | % Susceptible, EUCAST (S. aureus; EUCAST 2013 breakpoints) | % Resistant, CLSI (E. faecium [3]; [8]) | % Resistant, EUCAST (E. faecium [3]; [8]) | % Susceptible, CLSI (E. faecium [3]; [9]) | % Susceptible, EUCAST (E. faecium [3]; [9])
0.5 to 4 µg/mL: MIC Range (E. faecium [3]; [9])
0.0%: % Resistant, CLSI (S. aureus; CLSI M100-S23 breakpoints) | % Resistant, EUCAST (S. aureus; EUCAST 2013 breakpoints) | % Resistant, CLSI ([1]; CLSI M100-S23 breakpoints) | % Susceptible, CLSI (E. faecium [3]; [8]) | % Susceptible, EUCAST (E. faecium [3]; [8]) | % Resistant, CLSI (E. faecium [3]; [9]) | % Resistant, EUCAST (E. faecium [3]; [9])
99.1%: % Susceptible, CLSI (E. faecalis [2]; [6]) | % Susceptible, EUCAST (E. faecalis [2]; [7]) | % susceptible (E. faecalis [2]; E. faecalis strains, criteria not stated)
0.5-2: Range (MIC) (MDR SA; Blood, n = 108, in µg/mL)
